Test results taken from publication PMC8936499, “Cytochrome P450 168A1 from Pseudomonas aeruginosa is involved in the hydroxylation of biologically relevant fatty acids” (PLoS ONE, 2022).
Where two headings read alike, the source gives them in different places. Marks after values point to notes of the source that are not given here.

Legend:
CYP168A1 [1] = target: T1, CYP168A1 (Pseudomonas aeruginosa, UniProt Q9I107); assay: Azole binding studies (spectral titration, type II difference spectra); settings: read-out: apparent dissociation constant (Kd) of azole-CYP168A1 complex; 2 μM CYP168A1, rearranged Morrison equation, duplicate
T1 sequence (Q9I107 entry or part of it): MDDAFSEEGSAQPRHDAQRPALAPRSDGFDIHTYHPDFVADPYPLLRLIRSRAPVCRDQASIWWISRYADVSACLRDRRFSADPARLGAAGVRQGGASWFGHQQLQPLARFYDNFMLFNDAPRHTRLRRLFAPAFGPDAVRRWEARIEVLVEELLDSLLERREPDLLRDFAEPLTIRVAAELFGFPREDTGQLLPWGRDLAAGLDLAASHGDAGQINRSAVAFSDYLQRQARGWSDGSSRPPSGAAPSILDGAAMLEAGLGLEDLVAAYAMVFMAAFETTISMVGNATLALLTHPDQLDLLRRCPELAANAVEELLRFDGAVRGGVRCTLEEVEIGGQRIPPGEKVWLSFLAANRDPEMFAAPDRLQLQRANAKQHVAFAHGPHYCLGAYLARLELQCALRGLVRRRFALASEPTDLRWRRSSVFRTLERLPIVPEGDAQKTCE

Candida albicans CYP51 = tested on: Candida albicans CYP51; parameters: method as in PMID 23274672, PMID 20625155; settings: cited from earlier work
CYP168A1 [2] = target: T1, CYP168A1; settings: 50 μM substrate, 2 μM CYP168A1, 3 hours at 37°C
CYP168A1 [3] = tested on: CYP168A1; parameters: method as in PMID 35085556; settings: arachidonic acid as substrate, CYP168A1:ketoconazole ratio 5μM:10μM; cited from earlier work
CYP168A1 [4] = target: T1, CYP168A1; format: biochemical; settings: 0.5% DMF in the CYP168A1 assay system
Procedure: Assay mixtures were incubated at 37°C for 5 min prior to initiation with 4 mM β-NADPH-Na4 and then incubated for a further 2.5 hours at the same temperature. Fatty acids and their hydroxylated products were recovered by extraction with dichloromethane and dried in a vacuum centrifuge. TMS derivatisation of the samples and analysis by GCMS were performed as previously described. Percentage product formation was calculated from the GC peak areas of the fatty acid and the hydroxylated metabolites, with compound identities confirmed by mass fragmentation patterns of fatty acid standards.
Control assays contained no azole, but an equivalent volume of DMF. Experiments were undertaken in duplicate.

CYP168A1 [5] = settings: comparison with ref 40
CYP168A1 [6] = target: T1, CYP168A1; settings: for Turnover no., ω-1- carbon hydroxylated / Turnover no., ω-2- carbon hydroxylated / % Product, ω-1- carbon hydroxylated / % Product, ω-2- carbon hydroxylated: 100 μM substrate, mean of two replicates ± standard error; for Turnover no., ω-1- carbon hydroxylated / Turnover no., ω-2- carbon hydroxylated: 0.25 μM CYP168A1, 37°C; for % Product, ω-1- carbon hydroxylated / % Product, ω-2- carbon hydroxylated: 0.25 μM CYP168A1, 2.5 h at 37°C; for hydroxylation rate at both the ω-1- and ω-2-positions (total): sum of ω-1 and ω-2 turnover
CYP168A1 [7] = target: T1, CYP168A1; assay: Fatty acid binding studies (spectral titration, type I difference spectra); settings: for Low- to high-spin state change (%): from ΔAmax; for Kd: read-out: Ks, mean of four replicates ± SD
Procedure: The absorbance difference spectra from 500 nm to 350 nm were determined after each incremental addition of fatty acid. Ligand saturation curves were constructed from the change in absorbance (ΔApeak-trough) against fatty acid concentration. The dissociation constant for the fatty acid-CYP168A1 complex (Ks) was determined by nonlinear regression (Levenberg-Marquardt algorithm) using a rearrangement of the Morrison equation [14] and the Michaelis-Menten equation. […]. All fatty acid binding experiments were undertaken in quadruplicate.
In between ligand binding determinations, the quartz cuvettes were washed with deionized water and then soaked for 30 min in 2-propanol at room temperature to desorb any residual fatty acids from the cuvette surfaces, followed by rinsing a further three-times with 2-propanol and then deionized water prior to drying.

CYP168A1 [8] = settings: cited from earlier work
CYP168A1 [9] = settings: cited from earlier work; remark: listed apart in the source
[10] = tested on: Streptomyces peucetius CYP147F1; parameters: method as in PMID 24055535; settings: cited from earlier work
[11] = 5 μM CYP168A1, cuvette path length 10 mm
[12] = 5 μM CYP168A1, path length 10 mm
[13] = 5 μM CYP168A1, 0.1 M Tris-HCl pH 8.1, room temperature, rearranged Morrison equation

Compound: C[C@@H](c1ncncc1F)[C@](O)(Cn1cncn1)c1ccc(F)cc1F [voriconazole]
- Kd (CYP168A1 [1]): 2050 ± 540 nM
- Kd (Candida albicans CYP51): 10 nM

Compound: CC(C)CCC[C@@H](C)[C@H]1CC[C@H]2[C@@H]3CC=C4C[C@@H](O)CC[C@]4(C)[C@H]3CC[C@]12C [cholesterol]
- oxygenated products formed (CYP168A1 [2]): no oxygenated products

Compound: C[C@]12CC[C@H]3[C@@H](CCC4=CC(=O)CC[C@@]43C)[C@@H]1CC[C@@H]2O [testosterone]
- oxygenated products formed (CYP168A1 [2]): no oxygenated products

Compound: CC(C)(C)C(O)(CCc1ccc(Cl)cc1)Cn1cncn1 (stereo not drawn) [tebuconazole]
- Kd (CYP168A1 [1]): 180 ± 10 nM
- Kd (Candida albicans CYP51): 36 nM

Compound: CC(=O)N1CCN(c2ccc(OCC3COC(Cn4ccnc4)(c4ccc(Cl)cc4Cl)O3)cc2)CC1 (stereo not drawn) [ketoconazole]
- reduction in enzyme activity (CYP168A1 [3]): ~70%

Compound: CN(C)C=O [DMF, dimethylformamide]
- reduction in oleic acid turnover (CYP168A1 [4]): 10 fold

Compound: CCCCCCCCCCCCCCCC(=O)O [Palmitic acid, palmitic acid]
- turnover, fold greater than observed with Mycobacterium tuberculosis CYP124 (CYP168A1 [5]): 23 fold
- Turnover no., ω-1- carbon hydroxylated (CYP168A1 [6]): 1.27 ± 0.10 min⁻¹
- Turnover no., ω-2- carbon hydroxylated (CYP168A1 [6]): 0.34 ± 0.10 min⁻¹
- Turnover no., ω-1- carbon hydroxylated (CYP168A1 [6]; listed as palmitic acid): 1.27 min⁻¹
- Turnover no., ω-2- carbon hydroxylated (CYP168A1 [6]; listed as palmitic acid): 0.34 min⁻¹
- % Product, ω-1- carbon hydroxylated (CYP168A1 [6]): 49 ± 3.8%
- % Product, ω-2- carbon hydroxylated (CYP168A1 [6]): 13 ± 4.0%
- hydroxylation rate at both the ω-1- and ω-2-positions (total) (CYP168A1 [6]): 1.61 min⁻¹
- fold-difference in apparent Ks values compared to stearic and linoleic acids (CYP168A1 [7]): ~2 fold
- ΔAmax (CYP168A1 [7]; [11]): 0.290 ±0.015
- Low- to high-spin state change (%) (CYP168A1 [7]; [12]): 58.1 ±3.0%
- Low- to high-spin state change (%) (CYP168A1 [7]; 5 μM CYP168A1, path length 10 mm, listed as palmitic acid): 58%
- Kd (CYP168A1 [7]; [13]): 117 ± 56 nM
- Kd (CYP168A1 [7]; 5 μM CYP168A1, 0.1 M Tris-HCl pH 8.1, room temperature, rearranged Morrison equation, listed as palmitic acid): 120 nM

Compound: CCCCCCCCCCCCCCCCCC(=O)O [Stearic acid, stearic acid]
- Kd (CYP168A1 [8]; read-out: Ks reported for P. aeruginosa CYP168A1): 327 nM
- catalytic turnover, fold greater than that for linoleic acid (CYP168A1 [6]): 3.5 fold
- fold less ω-1-hydroxy product formed than with palmitic acid as substrate (CYP168A1 [6]): 1.2 fold
- fold less ω-2-hydroxy product formed than with palmitic acid as substrate (CYP168A1 [6]): 2 fold
- Turnover no., ω-1- carbon hydroxylated (CYP168A1 [6]): 1.07 ± 0.09 min⁻¹
- Turnover no., ω-2- carbon hydroxylated (CYP168A1 [6]): 0.17 ± 0.01 min⁻¹
- % Product, ω-1- carbon hydroxylated (CYP168A1 [6]): 41 ± 2.9%
- % Product, ω-2- carbon hydroxylated (CYP168A1 [6]): 6.6 ± 0.5%
- hydroxylation rate at both the ω-1- and ω-2-positions (total) (CYP168A1 [6]): 1.24 min⁻¹
- ΔAmax (CYP168A1 [7]; [11]): 0.328 ±0.020
- Ks in this study, fold lower than recently reported (CYP168A1 [7]; compared with ref 28): over 6 fold
- Low- to high-spin state change (%) (CYP168A1 [7]; [12]): 65.6 ±4.1%
- Low- to high-spin state change (%) (CYP168A1 [7]; 5 μM CYP168A1, path length 10 mm, listed as stearic acid): 66%
- Kd (CYP168A1 [7]; [13]): < 50 nM

Compound: CCCCC/C=C\C/C=C\CCCCCCCC(=O)O [Linoleic acid, linoleic acid]
- Turnover no., ω-1- carbon hydroxylated (CYP168A1 [6]): 0.35 ± 0.03 min⁻¹
- Turnover no., ω-1- carbon hydroxylated (CYP168A1 [6]; listed as linoleic acid): 0.35 min⁻¹
- % Product, ω-1- carbon hydroxylated (CYP168A1 [6]): 14 ± 1.3%
- ΔAmax (CYP168A1 [7]; [11]): 0.142 ±0.013
- Low- to high-spin state change (%) (CYP168A1 [7]; [12]): 28.3 ±2.6%
- Low- to high-spin state change (%) (CYP168A1 [7]; 5 μM CYP168A1, path length 10 mm, listed as linoleic acid): 28%
- Kd (CYP168A1 [7]; [13]): < 50 nM

Compound: CCCCCCCC/C=C\CCCCCCCC(=O)O [Oleic acid, oleic acid]
- % Product, ω-1- carbon hydroxylated (CYP168A1 [6]): 49 ± 1.2%
- ΔAmax (CYP168A1 [7]; [11]): 0.277 ±0.014
- Low- to high-spin state change (%) (CYP168A1 [7]; [12]): 55.4 ±2.8%
- Low- to high-spin state change (%) (CYP168A1 [7]; 5 μM CYP168A1, path length 10 mm, listed as oleic acid): 55%
- Kd (CYP168A1 [7]; [13]): 142 ± 12 nM
- Kd (CYP168A1 [7]; 5 μM CYP168A1, 0.1 M Tris-HCl pH 8.1, room temperature, rearranged Morrison equation, listed as oleic acid): ~150 nM

Compound: CCCCC/C=C\C/C=C\C/C=C\C/C=C\CCCC(=O)O [Arachidonic acid, arachidonic acid]
- Kd (CYP168A1 [8]): 960 nM
- CYP168A1 turnover number (CYP168A1 [9]): 0.222 min⁻¹
- Ks value, fold larger than stearic acid (CYP168A1 [7]): 9000 fold
- fold-difference in apparent Ks values compared to stearic and linoleic acids (CYP168A1 [7]): ~9160 fold
- ΔAmax (CYP168A1 [7]; 5 μM CYP168A1, cuvette path length 4.5 mm): 0.071 ±0.009 ^b
- Ks in this study, fold higher than recently reported (CYP168A1 [7]; compared with ref 28): over 400 fold
- Low- to high-spin state change (%) (CYP168A1 [7]; 5 μM CYP168A1, path length 4.5 mm): 31.6 ±4.0 ^b %
- Low- to high-spin state change (%) (CYP168A1 [7]; 5 μM CYP168A1, path length 4.5 mm, listed as arachidonic acid): 32%
- Kd (CYP168A1 [7]; 5 μM CYP168A1, Michaelis-Menten equation, saturation not achieved at 660 μM): 458000 ± 87000 nM
- Kd (CYP168A1 [7]; 5 μM CYP168A1, Michaelis-Menten equation, saturation not achieved at 660 μM, listed as arachidonic acid): ~460000 nM

Compound: CCCCCC/C=C\CCCCCCCC(=O)O [Palmitoleic acid, palmitoleic acid]
- Turnover no., ω-1- carbon hydroxylated (CYP168A1 [6]): 0.38 ± 0.06 min⁻¹
- Turnover no., ω-1- carbon hydroxylated (CYP168A1 [6]; listed as palmitoleic acid): 0.38 min⁻¹
- % Product, ω-1- carbon hydroxylated (CYP168A1 [6]): 15 ± 2.4%
- fold-difference in apparent Ks values compared to stearic and linoleic acids (CYP168A1 [7]): ~3 fold
- ΔAmax (CYP168A1 [7]; [11]): 0.185 ±0.006
- Low- to high-spin state change (%) (CYP168A1 [7]; [12]): 37.0 ±1.2%
- Low- to high-spin state change (%) (CYP168A1 [7]; 5 μM CYP168A1, path length 10 mm, listed as palmitoleic acid): 37%
- Kd (CYP168A1 [7]; [13]): 155 ± 83 nM
- Kd (CYP168A1 [7]; 5 μM CYP168A1, 0.1 M Tris-HCl pH 8.1, room temperature, rearranged Morrison equation, listed as palmitoleic acid): ~150 nM

Compound: CC(C)CCC[C@@H](C)[C@H]1CC[C@H]2[C@@H]3CCC4=CC(=O)CC[C@]4(C)[C@H]3CC[C@]12C [cholesta-4-ene-3-one]
- oxygenated products formed (CYP168A1 [2]): no oxygenated products

Compound: CCCCCCCCCCCCCC(=O)O [Myristic acid, myristic acid]
- catalytic turnover, fold lower than palmitic acid (CYP168A1 [6]): 5.3 fold
- fold less ω-1-hydroxy product formed than with palmitic acid as substrate (CYP168A1 [6]): 4.7 fold
- fold less ω-2-hydroxy product formed than with palmitic acid as substrate (CYP168A1 [6]): 10.3 fold
- Turnover no., ω-1- carbon hydroxylated (CYP168A1 [6]): 0.27 ± 0.02 min⁻¹
- Turnover no., ω-2- carbon hydroxylated (CYP168A1 [6]): 0.033 ± 0.001 min⁻¹
- % Product, ω-1- carbon hydroxylated (CYP168A1 [6]): 11 ± 0.6%
- % Product, ω-2- carbon hydroxylated (CYP168A1 [6]): 1.3 ± 0.03%
- hydroxylation rate at both the ω-1- and ω-2-positions (total) (CYP168A1 [6]): 0.30 min⁻¹
- fold-difference in apparent Ks values compared to stearic and linoleic acids (CYP168A1 [7]): ~5 fold
- Low- to high-spin state change (%) (CYP168A1 [7]; [12]): 22.8 ±1.6%
- Low- to high-spin state change (%) (CYP168A1 [7]; 5 μM CYP168A1, path length 10 mm, listed as myristic acid): 23%
- Kd (CYP168A1 [7]; [13]): 249 ± 103 nM
- Kd (CYP168A1 [7]; 5 μM CYP168A1, 0.1 M Tris-HCl pH 8.1, room temperature, rearranged Morrison equation, listed as myristic acid): 250 nM

Compound: Clc1ccc(COC(Cn2ccnc2)c2ccc(Cl)cc2Cl)c(Cl)c1 (stereo not drawn) [miconazole]
- Kd (CYP168A1 [1]): 190 ± 60 nM
- Kd (Candida albicans CYP51): 26 nM

Compound: CCCCCCCCCCCC(=O)O [lauric acid]
- CYP168A1 Km, fold higher than the Ks value (CYP168A1 [9]): 25 fold
- CYP168A1 turnover number (CYP168A1 [9]): 0.138 min⁻¹
- enzyme molecules undergoing low- to high-spin state transition [10]: 95%
